Source: publication PMC11352945, “Anticancer Activity of Benzo[a]phenoxazine Compounds Promoting Lysosomal Dysfunction” (Cells, 2024)
Values after ≈ are worked out from the molar mass of the structure shown. Where two headings read alike, the source gives them in different places.

How the values were obtained:
HCT116 cells [1] = assay: Sulforhodamine B (SRB) cell viability assay, HCT116; assay type: cell-based; conditions: Homo sapiens, HCT-116, CRC cell line, 48 h, read-out: IC50 (μM) ± SD, HCT116
Method: (§1) The cells were allowed to adhere overnight, from 12 h to 18 h, and then treated with increasing concentrations of each compound, C9, A36, and A42 (0.125 μM, 0.25 μM, 0.5 μM, 1 μM, 2.5 μM, and 5 μM), in their respective culture mediums for 48 h. In addition to a negative control that consisted only of cells and growth medium, a negative control containing the highest concentration of the solvent in which the compound was dissolved (DMSO 0.1%) was also used. The SRB assay was performed according to Marques et al.. The IC50 values were obtained using GraphPad Prism version 8.2.1 through the application of a sigmoidal dose–response nonlinear regression, after logarithmic transformation. The selectivity index was determined by dividing the IC50 value of the non-neoplastic BJ-5ta cell line by the IC50 value of the cancer cell lines (IC50 BJ-5ta/IC50 cancer cell line); furthermore, for the CRC model, a second selectivity index was also determined using the non-neoplastic NCM460 cell line (IC50 NCM460/IC50 CRC cell line). According to the results of the selectivity index, the cell line with the highest selectivity value for each of the models, CRC and breast, was selected for subsequent characterization.
(§2) Three CRC-derived cell lines, SW480 (KRAS^G12V), HCT116 (KRAS^G13D), and RKO (BRAF^V600E), harboring somatic mutations on KRAS or BRAF, and two breast-cancer-derived cell lines, MDA-MB-231 (basal like) and MCF7 (luminal A subtype), together with two non-neoplastic cell lines, NCM460 (normal colon mucosal epithelial cell line) and BJ-5ta (normal foreskin fibroblast cell line), were used to study the activity and selectivity of the three new benzo[a]phenoxazine compounds, C9, A36, and A42. All cell lines were treated with a range of drug concentrations (0.125 μM, 0.25 μM, 0.5 μM, 1 μM, 2.5 μM, and 5 μM) for 48 h, and the effect on cell viability was assessed using a sulforhodamine B assay (SRB) (Figure 2). […] In addition, the selectivity index was determined using the BJ-5ta cell line as a reference, as well as the NCM460 cell line for the CRC model (Table 1).

SW480 cells [2] = assay: Sulforhodamine B (SRB) cell viability assay, SW480; assay type: cell-based; conditions: Homo sapiens, CRC cell line, 48 h, read-out: IC50 (μM) ± SD, SW480
Method: as §1, §2

MCF7 cells [3] = assay: Cell proliferation by CFSE (flow cytometry), MCF7; assay type: cell-based, human
Method: (§3) RKO and MCF7 cell proliferation was evaluated through flow cytometry using the Carboxyfluorescein Diacetate Succinimidyl Ester (CFSE) probe. Confluent cells were collected, rinsed with PBS 1×, and incubated with 5 μM of CFSE for 15 min at 37 °C. Then, the cells were rinsed, resuspended in growth medium, and seeded in 12-well plates at 1 × 10^5 cells/mL. After 24 h, adherent cells were treated with compounds C9, A36, and A42 at IC50 and 2 × IC50 concentrations or 0.1% DMSO (vehicle). Untreated cells were used as controls. The cells were harvested at different time points of 0 h, 24 h, […], and 72 h. The cells were then analyzed in a flow cytometer and the CFSE median fluorescence intensity was quantified using the FITC-A channel. All median values were normalized to the time point 0 h.
(§4) The benzo[a]phenoxazines C9, A36, and A42 were tested for their capacity to decrease cell growth using an optimized flow cytometry Carboxyfluorescein Diacetate Succinimidyl Ester (CFSE) labeling procedure. This procedure enables the differentiation of successive rounds of cell division, since the CFSE probe is uniformly distributed among daughter cells during cell division. As a result, a decrease in green CFSE fluorescence was employed as an indicator of cell proliferation.

MCF7 cells [4] = assay: Sulforhodamine B (SRB) cell viability assay, MCF7; assay type: cell-based; conditions: Homo sapiens, breast cancer cell line, 48 h, read-out: IC50 (μM) ± SD, MCF7
Method: as §1, §2

RKO cells [5] = assay: Sulforhodamine B (SRB) cell viability assay, RKO; assay type: cell-based; conditions: Homo sapiens, CRC cell line, 48 h, read-out: IC50 (μM) ± SD, RKO
Method: as §1, §2

NCM460 cells [6] = assay: Sulforhodamine B (SRB) cell viability assay, NCM460; assay type: cell-based; conditions: Homo sapiens, non-neoplastic cell line, 48 h, read-out: IC50 (μM) ± SD, NCM460
Method: as §1, §2

MCF7 cells [7] = assay: Colony formation assay, MCF7; assay type: cell-based, human; conditions: MCF7, IC50/2, 48 h treatment
Method: (§5) A colony formation assay was conducted on the RKO and MCF7 cell lines. In 6-well plates, 600 cells/mL and 800 cells/mL RKO and MCF7 cells, respectively, were seeded. Adherent cells were treated with the compounds C9, A36, and A42 at IC50/2 and IC50 concentrations or 0.1% DMSO (vehicle). As a control, untreated cells were used. Following a 48 h incubation period, the cells were twice rinsed with PBS 1× before being supplemented with new medium. After that, the cells were given 10–14 days to grow (new medium was added every 3 days). Following a PBS 1× rinse, the colonies were fixed for 30 min using 0.5% crystal violet and 6% glutaraldehyde. The ImageJ software (V1.53) was used to calculate the number of colonies. The percentage of colonies was determined and normalized for the untreated control.

BJ-5ta cells [8] = assay: Sulforhodamine B (SRB) cell viability assay, BJ-5ta; assay type: cell-based; conditions: Homo sapiens, non-neoplastic cell line, 48 h, read-out: IC50 (μM) ± SD, BJ-5ta
Method: as §1, §2

RKO cells [9] = assay: Cell proliferation by CFSE (flow cytometry), RKO; assay type: cell-based, human; conditions: IC50 and 2 × IC50, 24 h, 48 h, 72 h
Method: as §3, §4

MDA-MB-231 cells [10] = assay: Sulforhodamine B (SRB) cell viability assay, MDA-MB-231; assay type: cell-based, human; conditions: for IC50: Homo sapiens, MDA-MB-231, breast cancer cell line, 48 h, SRB, read-out: IC50 (μM) ± SD, MDA-MB-231; for Selectivity Index Cell Line IC50/BJ-5ta IC50: MDA-MB-231 versus BJ-5ta
Method: as §1
Three CRC-derived cell lines, SW480 (KRAS^G12V), HCT116 (KRAS^G13D), and RKO (BRAF^V600E), harboring somatic mutations on KRAS or BRAF, and two breast-cancer-derived cell lines, MDA-MB-231 (basal like) and MCF7 (luminal A subtype), together with two non-neoplastic cell lines, NCM460 (normal colon mucosal epithelial cell line) and BJ-5ta (normal foreskin fibroblast cell line), were used to study the activity and selectivity of the three new benzo[a]phenoxazine compounds, C9, A36, and A42. All cell lines were treated with a range of drug concentrations (0.125 μM, 0.25 μM, 0.5 μM, 1 μM, 2.5 μM, and 5 μM) for 48 h, and the effect on cell viability was assessed using a sulforhodamine B assay (SRB) (Figure 2). The results were used to determine the IC50 value of each compound for all the cell lines (Table 1). In addition, the selectivity index was determined using the BJ-5ta cell line as a reference, as well as the NCM460 cell line for the CRC model (Table 1).

S. cerevisiae = conditions: yeast S. cerevisiae, microdilution; cited from earlier work
RKO cells [11] = assay: Annexin V/PI assay (flow cytometry), RKO; assay type: cell-based, human; conditions: 2 × IC50 and 4 × IC50, 48 h
Method: (§6) RKO and MCF7 cells were seeded in 12-well plates at a density of 1 × 10^5 cells/mL. After 24 h, the cells were treated with C9, A36, and A42 at 2 × IC50 and 4 × IC50 concentrations or 0.1% DMSO (vehicle). Untreated cells were used as controls. After 48 h, floating and adherent cells were collected. The cells were resuspended in […] of binding buffer and treated for 15 min in the dark with 5 μL of Annexin V-FITC (Detection Kit-ab14085) and 5 μL of Propidium Iodide (50 μg/mL). The samples were subjected to flow cytometry analysis, PI fluorescence was detected using the ECD-A channel, and Annexin V fluorescence was detected using the FITC-A channel.
(§7) One of the main goals of clinical oncology is the development of compounds and treatments capable of selectively eliminating cancer cells. In this sense, we next evaluated the capability of the compounds to induce cell death in both cell lines. For this, we performed a flow cytometry analysis using annexin V-FITC and propidium iodide PI double staining. The conjugation of these two probes allowed for the discrimination of viable (negative for both), early apoptotic (annexin + and PI−), late apoptotic (annexin+ and PI+), and necrotic (annexin− and PI+) cells. […] Both flouting and attached cells were harvested and double stained.

RKO cells [12] = assay: Colony formation assay, RKO; assay type: cell-based, human; conditions: 10-14 days growth
Method: as §5

MCF7 cells [13] = assay: Annexin V/PI assay (flow cytometry), MCF7; assay type: cell-based, human; conditions: MCF7, 2 × IC50 and 4 × IC50, 48 h
Method: as §6, §7

MCF7 cells [14] = system: MCF7 cells; design: method as in PMID 36614056; conditions: lead compound, breast cancer cell line; read-out: IC50 (μM) ± SD, MCF7; cited from earlier work
MDA-MB-231 cells [15] = system: MDA-MB-231 cells; design: method as in PMID 36614056; conditions: lead compound, breast cancer cell line; read-out: IC50 (μM) ± SD, MDA-MB-231; cited from earlier work
RKO cells [16] = system: RKO cells; design: method as in PMID 36614056; conditions: lead compound, CRC cell line; read-out: IC50 (μM) ± SD, RKO; cited from earlier work
HCT116 cells [17] = system: HCT116 cells; design: method as in PMID 36614056; conditions: lead compound, CRC cell line; read-out: IC50 (μM) ± SD, HCT116; cited from earlier work
NCM460 cells [18] = system: NCM460 cells; design: method as in PMID 36614056; conditions: lead compound, non-neoplastic cell line; read-out: IC50 (μM) ± SD, NCM460; cited from earlier work
BJ-5ta cells [19] = system: BJ-5ta cells; design: method as in PMID 36614056; conditions: lead compound, non-neoplastic cell line; read-out: IC50 (μM) ± SD, BJ-5ta; cited from earlier work
SW480 cells [20] = system: SW480 cells; design: method as in PMID 36614056; conditions: lead compound, CRC cell line; read-out: IC50 (μM) ± SD, SW480; cited from earlier work

Row | SMILES | IC50 (HCT116 cells [1]) | IC50 (SW480 cells [2]) | IC50 (MCF7 cells [4]) | IC50 (RKO cells [5]) | IC50 (NCM460 cells [6]) | Colonies detected (MCF7 cells [7]) | IC50 (BJ-5ta cells [8]) | IC50 (MDA-MB-231 cells [10]) | Selectivity Index Cell Line IC50/BJ-5ta IC50 (MDA-MB-231 cells [10]) | MIC (minimum inhibitory concentration) (S. cerevisiae) | also measured
1 | CCCNc1cc2oc3cc(=[N+](CCC)CCC)ccc-3nc2c2ccccc12 [A36] | 1.28 ± 0.06 µM | 0.72 ± 0.03 µM | 0.63 ± 0.05 µM | 0.37 ± 0.03 µM | 2.06 ± 0.25 µM | reduced number of small colonies | 2.44 ± 0.18 µM | 1.01 ± 0.09 µM | 2.41 | 1.56 µM | CFSE median fluorescence normalized to T0 (MCF7 cells [3]; MCF7, 2 × IC50, 24 h (untreated 37%)): 62%; CFSE median fluorescence normalized to T0 (MCF7 cells [3]; MCF7, 2 × IC50, 48 h (untreated 21%)): 59%; CFSE median fluorescence normalized to T0 (MCF7 cells [3]; MCF7, 2 × IC50, 72 h (untreated 10%)): 47%; Effect on cell proliferation (CFSE) (MCF7 cells [3]; MCF7, IC50 and 2 × IC50, 24 h, 48 h, 72 h): highest effect; CFSE median fluorescence normalized to T0 (MCF7 cells [3]; MCF7, IC50 concentration, 24 h (untreated 37%)): 53%; CFSE median fluorescence normalized to T0 (MCF7 cells [3]; MCF7, IC50 concentration, 48 h (untreated 21%)): 50%; CFSE median fluorescence normalized to T0 (MCF7 cells [3]; MCF7, IC50 concentration, 72 h (untreated 10%)): 41%; Effect on cell proliferation (CFSE) (RKO cells [9]): highest effect
2 | ClCCCN=c1cc2oc3c4c5c(cc3nc-2c2ccccc12)CCCN5CCC4 [A42] | 1.13 ± 0.07 µM | 0.78 ± 0.07 µM | 0.54 ± 0.02 µM | 0.29 ± 0.01 µM | 2.59 ± 0.31 µM | reduced number of small colonies | 2.58 ± 0.19 µM | 0.79 ± 0.03 µM | 3.26 | 0.78 µM (≈ 0.326 µg/mL) | Cell death induction (Annexin V/PI) (RKO cells [11]): most powerful compounds; Reduction of the colonies formed (RKO cells [12]; IC50, 48 h treatment): > 90%; Reduction of the colonies formed (RKO cells [12]; IC50/2, 48 h treatment): more than 75%; Cell death induction (Annexin V/PI) (MCF7 cells [13]): most powerful compounds
3 | CCN=c1cc2oc3cc(NCCCC(=O)OCC)c4ccccc4c3nc-2cc1C [BaP1] | – | – | – | – | – | – | – | – | 1.05 | 25 µM (≈ 10.4 µg/mL) | IC50 (MCF7 cells [14]): 0.92 ± 0.07 µM; IC50 (MDA-MB-231 cells [15]): 1.73 ± 0.03 µM; IC50 (RKO cells [16]): 1.4 ± 0.08 µM; IC50 (HCT116 cells [17]): 1.9 ± 0.09 µM; IC50 (NCM460 cells [18]): 12.8 ± 2.05 µM; IC50 (BJ-5ta cells [19]): 1.83 ± 0.06 µM; IC50 (SW480 cells [20]): 5.6 ± 0.19 µM
